Tests used:
Format in all cases: cell-based
NLRP3 [1] = target: T1, NLRP3 (Homo sapiens, UniProt Q96P20); assay: THP-1 cells pyroptosis assay; parameters: Seed THP-1 cells (25,000 cells/well) containing 1.0 μg/ml LPS; host or cells: THP-1 cells; settings: 1.0 μg/ml LPS, nigericin 5 μM, resazurin readout
Procedure: THP-1 cells (ATCC #TIB-202) were grown in RPMI containing L-glutamine (Gibco #11835) supplemented with 1 mM sodium pyruvate (Sigma #S8636) and penicillin (100 units/ml)/streptomycin (0.1 mg/ml) (Sigma #P4333) in 10% Fetal Bovine Serum (FBS) (Sigma #F0804). The cells were routinely passaged and grown to confluency (~10^6 cells/ml). On the day of the experiment, THP-1 cells were harvested and resuspended into RPMI medium (without FBS). The cells were then counted and viability (>90%) checked by Trypan blue (Sigma #T8154). Appropriate dilutions were made to give a concentration of 625,000 cells/ml. To this diluted cell solution was added LPS (Sigma #L4524) to give a […] Final Assay Concentration (FAC). 40 μl of the final preparation was aliquoted into each well of a 96-well plate. The plate thus prepared was used for compound screening.
The following method step-by-step assay was followed for compound screening. • 1. Seed THP-1 cells (25,000 cells/well) containing 1.0 μg/ml LPS in 40 μl of RPMI medium (without FBS) in 96-well, black walled, clear bottom cell culture plates coated with poly-D-lysine (VWR #734-0317) • 2. Add 5 μl compound (8 points half-log dilution, with 10 μM top dose) or vehicle (DMSO 0.1% FAC) to the appropriate wells • 3. Incubate for 3 hours at 37° C., 5% CO2 • 4. Add 5 μl nigericin (Sigma #N7143) (FAC 5 μM) to all wells • 5. Incubate for 1 hr at 37° C., 5% CO2 • 6. At the end of the incubation period, spin plates at 300×g for 3 mins and remove supernatant • 7. Then add 50 μl of resazurin (Sigma #R7017) (FAC 100 μM resazurin in RPMI medium without FBS) and incubate plates for a further 1-2 hours at 37° C. and 5% CO2 • 8. Plates were read in an Envision reader at Ex 560 nm and Em 590 nm • 9. IC50 data is fitted to a non-linear regression equation (log inhibitor vs response-variable slope 4-parameters)

NLRP3 [2] = target: T1, NLRP3; assay: Human whole blood IL-1β release assay; settings: 1 μg/ml LPS, nigericin 10 μM, IL-1β AlphaLisa
Procedure: For systemic delivery, the ability to inhibit NLRP3 when the compounds are present within the bloodstream is of great importance. For this reason, the NLRP3 inhibitory activity of a number of compounds in human whole blood was investigated in accordance with the following protocol.
Human whole blood in Li-heparin tubes was obtained from healthy donors from a volunteer donor panel. • 1. Plate out 80 μl of whole blood containing 1 μg/ml of LPS in 96-well, clear bottom cell culture plate (Corning #3585) • 2. Add 10 μl compound (8 points half-log dilution with 10 μM top dose) or vehicle (DMSO 0.1% FAC) to the appropriate wells • 3. Incubate for 3 hours at 37° C., 5% CO2 • 4. Add 10 μl nigericin (Sigma #N7143) (10 μM FAC) to all wells • 5. Incubate for 1 hr at 37° C., 5% CO2 • 6. At the end of the incubation period, spin plates at 300×g for 5 mins to pellet cells and remove 20 μl of supernatant and add to 96-well v-bottom plates for IL-1β analysis (note: these plates containing the supernatants can be stored at −80° C. to be analysed at a later date) • 7. IL-1β was measured according to the manufacturer protocol (Perkin Elmer-AlphaLisa IL-1 Kit AL220F-5000) • 8. IC50 data is fitted to a non-linear regression equation (log inhibitor vs response-variable slope 4-parameters)

[3] = target: T2, hERG cardiac potassium channel (Homo sapiens, UniProt Q12809); assay: hERG screening assay (automated patch clamp, CHO crelox hERG cells); settings: CHO crelox hERG cells (CHO cells that express hERG), whole-cell patch clamp, 35-37° C.
T2 construct: host or cells: CHO crelox hERG cell line (Chinese hamster)
Excerpt: In the drug development process of small molecules, one of the most frequent adverse side effects, leading to the failure of drugs, is the cardiac arrhythmias. Such failure is often related to the capacity of the drug to inhibit the human ether-a-go-go-related gene (hERG) cardiac potassium channel. Having no or low inhibition of the hERG cardiac potassium channel is therefore considered as beneficial.
The CHO crelox hERG cell line (ATCC reference Nr. PTA-6812, female Chinese hamster cells) was generated and validated at Roche. Ready-to-use frozen instant CHO-hERG cells were cryopreserved at Evotec (Germany) and used directly in the experiments.
The extracellular solution contains (in mM): NaCl 150; KCl 4; CaCl2 1; MgCl2 1; HEPES 10; pH 7.2-7.4 with NaOH, osmolarity 290-330 mOsm. […]
The effects of a compound on hERG K+-currents parameters will be evaluated at 2 concentrations in at least 4 cells.
The hERG test is performed using automated patch clamp system SynchroPatch® 384 (Nanion Technologies GmbH, Germany). K+ currents are measured with the patch-voltage-clamp technique in the whole-cell configuration at 35-37° C. […]
The amplitudes of IKhERG were recorded in each concentration of drug and they were compared to the vehicle control values (taken as 100%) to define fractional blocks. […]

T1 sequence (Q96P20 whole entry): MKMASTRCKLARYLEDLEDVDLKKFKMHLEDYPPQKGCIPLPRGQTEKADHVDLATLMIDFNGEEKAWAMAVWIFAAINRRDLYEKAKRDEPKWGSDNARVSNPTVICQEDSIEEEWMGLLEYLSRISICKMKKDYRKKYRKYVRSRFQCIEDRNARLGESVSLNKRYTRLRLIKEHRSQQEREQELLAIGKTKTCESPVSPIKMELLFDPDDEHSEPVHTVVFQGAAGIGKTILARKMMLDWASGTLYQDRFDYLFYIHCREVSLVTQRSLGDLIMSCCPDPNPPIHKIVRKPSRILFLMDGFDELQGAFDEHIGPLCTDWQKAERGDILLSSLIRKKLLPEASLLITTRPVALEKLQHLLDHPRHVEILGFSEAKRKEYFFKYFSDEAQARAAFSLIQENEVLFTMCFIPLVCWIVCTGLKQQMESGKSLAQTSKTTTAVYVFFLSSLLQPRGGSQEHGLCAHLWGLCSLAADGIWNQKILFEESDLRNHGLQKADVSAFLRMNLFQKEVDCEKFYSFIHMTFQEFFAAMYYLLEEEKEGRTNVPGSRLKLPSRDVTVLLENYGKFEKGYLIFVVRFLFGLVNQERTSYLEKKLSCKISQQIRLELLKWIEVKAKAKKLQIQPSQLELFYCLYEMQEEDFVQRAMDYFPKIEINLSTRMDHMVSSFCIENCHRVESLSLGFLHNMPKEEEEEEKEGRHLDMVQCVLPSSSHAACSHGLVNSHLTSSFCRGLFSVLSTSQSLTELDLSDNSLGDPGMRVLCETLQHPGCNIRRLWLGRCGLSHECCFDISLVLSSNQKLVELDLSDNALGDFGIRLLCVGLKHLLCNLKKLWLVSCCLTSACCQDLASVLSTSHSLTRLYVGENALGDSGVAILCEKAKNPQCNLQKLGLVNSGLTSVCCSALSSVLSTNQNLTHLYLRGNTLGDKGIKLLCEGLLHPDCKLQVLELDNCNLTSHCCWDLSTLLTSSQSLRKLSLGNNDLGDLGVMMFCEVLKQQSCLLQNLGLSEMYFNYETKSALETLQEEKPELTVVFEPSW
T2 sequence (Q12809 whole entry): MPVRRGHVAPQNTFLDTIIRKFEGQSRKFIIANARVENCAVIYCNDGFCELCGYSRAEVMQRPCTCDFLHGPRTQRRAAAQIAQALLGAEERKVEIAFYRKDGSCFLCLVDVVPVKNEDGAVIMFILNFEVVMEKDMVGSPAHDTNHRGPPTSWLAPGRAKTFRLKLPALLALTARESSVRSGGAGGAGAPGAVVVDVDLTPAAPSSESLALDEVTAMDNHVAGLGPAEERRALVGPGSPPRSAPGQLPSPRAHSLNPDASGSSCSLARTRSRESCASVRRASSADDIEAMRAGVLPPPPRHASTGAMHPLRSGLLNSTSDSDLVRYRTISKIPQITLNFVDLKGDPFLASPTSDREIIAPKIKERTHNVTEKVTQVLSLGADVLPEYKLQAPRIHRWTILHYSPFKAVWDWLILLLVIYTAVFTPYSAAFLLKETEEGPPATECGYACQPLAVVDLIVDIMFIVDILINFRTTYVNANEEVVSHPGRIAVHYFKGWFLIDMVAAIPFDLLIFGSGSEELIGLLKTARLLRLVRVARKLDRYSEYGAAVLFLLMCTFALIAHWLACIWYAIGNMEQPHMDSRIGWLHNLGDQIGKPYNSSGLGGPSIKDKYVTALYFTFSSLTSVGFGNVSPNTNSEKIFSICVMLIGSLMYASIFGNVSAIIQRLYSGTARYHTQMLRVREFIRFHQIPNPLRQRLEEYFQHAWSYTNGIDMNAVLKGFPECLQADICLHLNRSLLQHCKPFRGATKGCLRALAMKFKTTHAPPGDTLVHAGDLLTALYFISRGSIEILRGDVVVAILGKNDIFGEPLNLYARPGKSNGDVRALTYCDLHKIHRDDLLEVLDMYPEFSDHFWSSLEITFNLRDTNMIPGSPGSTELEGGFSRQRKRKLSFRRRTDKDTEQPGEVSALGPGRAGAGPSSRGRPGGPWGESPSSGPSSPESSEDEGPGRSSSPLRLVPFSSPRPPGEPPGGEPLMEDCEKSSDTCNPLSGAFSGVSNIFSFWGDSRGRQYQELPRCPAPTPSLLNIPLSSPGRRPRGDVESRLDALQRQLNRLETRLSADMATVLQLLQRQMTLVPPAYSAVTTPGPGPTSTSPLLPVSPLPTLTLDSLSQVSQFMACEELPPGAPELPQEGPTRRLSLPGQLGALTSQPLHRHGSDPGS

| IC50 (NLRP3 [1]) | IC50 (NLRP3 [2]) | SMILES | IC20 [3] |
| --- | --- | --- | --- |
| 616 nM | – | CCN1CCC[C@@H](Nc2nnc(-c3ccc(C(F)(F)F)cc3O)c(=O)n2C)C1 [Example 1, 3-[[(3R)-1-Ethyl-3-piperidyl]amino]-6-[2-hydroxy-4-(trifluoromethyl)phenyl]-4-methyl-1,2,4-triazin-5-one; Formic Acid] | – |
| 31.3 nM | 52 nM | CCN1CCC[C@@H](Nc2nnc(-c3c(C)cc(C(F)(F)F)cc3O)c(=O)n2C)C1 [Example 2, 3-[[(3R)-1-ethyl-3-piperidyl]amino]-6-[2-hydroxy-6-methyl-4-(trifluoromethyl)phenyl]-4-methyl-1,2,4-triazin-5-one] | > 10 µM |
| 17 nM | 41 nM | CCN1CCC[C@@H](Nc2nnc(-c3c(C)cc4c(c3O)CCC4)c(=O)n2C)C1 [Example 3, 3-[[(3R)-1-Ethyl-3-piperidyl]amino]-6-(4-hydroxy-6-methyl-indan-5-yl)-4-methyl-1,2,4-triazin-5-one] | > 10 µM |
| 248 nM | – | Cc1cc2c(c(O)c1-c1nnc(N[C@@H]3CCCN(CCO)C3)n(C)c1=O)CCC2 [Example 4, 3-[[(3R)-1-(2-Hydroxyethyl)-3-piperidyl]amino]-6-(4-hydroxy-6-methyl-indan-5-yl)-4-methyl-1,2,4-triazin-5-one] | – |
| 39 nM | 33 nM | CCN1CCC[C@@H](Nc2nnc(-c3c(C)cc4c(c3O)CCO4)c(=O)n2C)C1 [Example 5, 3-[[(3R)-1-Ethyl-3-piperidyl]amino]-6-(4-hydroxy-6-methyl-2,3-dihydrobenzofuran-5-yl)-4-methyl-1,2,4-triazin-5-one] | – |
| 33 nM | 41 nM | CCN1CCC[C@@H](Nc2nnc(-c3c(C)cc(Cl)cc3O)c(=O)n2C)C1 [Example 6, 6-(4-Chloro-2-hydroxy-6-methyl-phenyl)-3-[[(3R)-1-ethyl-3-piperidyl]amino]-4-methyl-1,2,4-triazin-5-one] | – |

Reference: patent publication US20260193228A1, “TRIAZINONE DERIVATIVES AS NLRP3 INHIBITORS” (Hoffmann-La Roche Inc., priority 2022, published 2026)
